Data published in the NIST ThermoML archive (doi:10.1021/je7001013).

How the values were obtained:
[1] = refractive index (Na D-line) (dimensionless); details: 101.33 kPa, Liquid
[2] = xn = mol fraction of the nth substance listed
[3] = refractive index (Na D-line) (dimensionless); xn = mol fraction of the nth substance listed; details: 101 kPa, Liquid

C[S+](C)[O-] [dimethyl sulfoxide]
Details	surface tension liquid-gas [mN/m]
298.15 K	41.7
303.15 K	41
308.15 K	40.3
313.15 K	39.7
318.15 K	39.1
323.15 K	38.5
328.15 K	37.9

[1]
Details	refractive index
298.15 K	1.4765
303.15 K	1.474
308.15 K	1.472

CCCS(=O)CCC [dipropyl sulfoxide]
Details	surface tension liquid-gas [mN/m]
298.15 K	32.6
303.15 K	32
308.15 K	31.5
313.15 K	31
318.15 K	30.5
323.15 K	29.9
328.15 K	29.4

[1]
Details	refractive index
298.15 K	1.4595
303.15 K	1.458
308.15 K	1.456

CCCS(=O)CCC [dipropyl sulfoxide] + O
Details	refractive index, [3]	surface tension liquid-gas, [2] [mN/m]
298.15 K, x1 = 0.0105	1.344	52.3
298.15 K, x1 = 0.01985	1.3516	–
298.15 K, x1 = 0.0199	–	47.4
298.15 K, x1 = 0.0469	1.374	42.2
298.15 K, x1 = 0.0998	1.4009	39.6
298.15 K, x1 = 0.2019	1.4305	37.5
298.15 K, x1 = 0.2809	1.4395	37.2
298.15 K, x1 = 0.3975	1.446	35.8
298.15 K, x1 = 0.5001	–	35.4
298.15 K, x1 = 0.5049	1.4502	–
298.15 K, x1 = 0.6818	1.455	34.3
298.15 K, x1 = 0.9002	1.458	–
303.15 K, x1 = 0.0105	1.343	51.1
303.15 K, x1 = 0.01985	1.351	–
303.15 K, x1 = 0.0199	–	46.4
303.15 K, x1 = 0.0469	1.3725	41.5
303.15 K, x1 = 0.0998	1.399	38.9
303.15 K, x1 = 0.2019	1.4285	37
303.15 K, x1 = 0.2809	1.4375	36.5
303.15 K, x1 = 0.3975	1.4455	35.2
303.15 K, x1 = 0.5001	–	34.9
303.15 K, x1 = 0.5049	1.4495	–
303.15 K, x1 = 0.6818	1.454	34.2
303.15 K, x1 = 0.9002	1.4555	–
308.15 K, x1 = 0.0105	1.342	49.9
308.15 K, x1 = 0.01985	1.3506	–
308.15 K, x1 = 0.0199	–	45.3
308.15 K, x1 = 0.0469	1.3711	40.7
308.15 K, x1 = 0.0998	1.398	38.1
308.15 K, x1 = 0.2019	1.4245	36.5
308.15 K, x1 = 0.2809	1.435	36
308.15 K, x1 = 0.3975	1.4445	34.5
308.15 K, x1 = 0.5001	–	34.3
308.15 K, x1 = 0.5049	1.4486	–
308.15 K, x1 = 0.6818	1.452	33.5
308.15 K, x1 = 0.9002	1.454	–
313.15 K, x1 = 0.0105	–	48.8
313.15 K, x1 = 0.0199	–	44.4
313.15 K, x1 = 0.0469	–	40
313.15 K, x1 = 0.0998	–	37.3
313.15 K, x1 = 0.2019	–	35.9
313.15 K, x1 = 0.2809	–	35
313.15 K, x1 = 0.3975	–	34.1
313.15 K, x1 = 0.5001	–	33.8
313.15 K, x1 = 0.6818	–	32.9
318.15 K, x1 = 0.0105	–	47.6
318.15 K, x1 = 0.0199	–	44.3
318.15 K, x1 = 0.0469	–	39.3
318.15 K, x1 = 0.0998	–	36.6
318.15 K, x1 = 0.2019	–	35
318.15 K, x1 = 0.2809	–	34.4
318.15 K, x1 = 0.3975	–	33.4
318.15 K, x1 = 0.5001	–	33.3
318.15 K, x1 = 0.6818	–	32.2
323.15 K, x1 = 0.0105	–	46.6
323.15 K, x1 = 0.0199	–	43.2
323.15 K, x1 = 0.0469	–	38.5
323.15 K, x1 = 0.0998	–	35.7
323.15 K, x1 = 0.2019	–	34.4
323.15 K, x1 = 0.2809	–	33.8
323.15 K, x1 = 0.3975	–	32.8
323.15 K, x1 = 0.5001	–	32.7
323.15 K, x1 = 0.6818	–	31.6
328.15 K, x1 = 0.0105	–	45.6
328.15 K, x1 = 0.0199	–	42.2
328.15 K, x1 = 0.0469	–	37.8
328.15 K, x1 = 0.0998	–	35
328.15 K, x1 = 0.2019	–	33.7
328.15 K, x1 = 0.2809	–	33.1
328.15 K, x1 = 0.3975	–	32.2
328.15 K, x1 = 0.5001	–	32.1
328.15 K, x1 = 0.6818	–	30.8
